Eight compounds from ChEMBL document CHEMBL2163198, “Substituent effects on desferrithiocin and desferrithiocin analogue iron-clearing and toxicity profiles” (J Med Chem, 2012) can be followed below.

The test system of data set [1] is Sapajus apella. In words: Iron excretion in iron-overloaded Cebus apella urine at 75 umol/kg, po after 48 hrs by flame absorption spectroscopy analysis relative to control. Type of data set: functional.
Data set [2] has as its system Rattus norvegicus. In words: Toxicity in rat assessed as mortality at 384 umol/kg, po qd for 10 days. As to conditions: in vivo, 240 h. The data set is classed as organism-based.
The test system of data set [3] is Rattus norvegicus. The data set is classed as toxicity, organism-based. As to conditions: in vivo, po, 168 h.
Data set [4] concerns Rattus norvegicus. In words: Iron clearing effect in noniron-overloaded bile duct cannulated Sprague-Dawley rat at 300 umol/kg, po after 48 hrs. Type of data set: functional.
Data set [5] concerns Rattus norvegicus. Nature of the data set: Iron excretion in noniron-overloaded bile duct cannulated Sprague-Dawley rat urine at 300 umol/kg, po after 48 hrs relative to control. The data set is classed as functional.
The subject of data set [6] is Sapajus apella. In words: Iron clearing effect in iron-overloaded Cebus apella at 75 umol/kg, po after 48 hrs by flame absorption spectroscopy analysis. Type of data set: functional.
The subject of data set [7] is Rattus norvegicus. In words: Iron excretion in noniron-overloaded bile duct cannulated Sprague-Dawley rat bile at 300 umol/kg, po after 48 hrs relative to control. The data set is classed as functional.
Data set [8] in a line: Octanol-water apparent partition coefficient, log D of the compound at pH 7.4. The data set is classed as physicochemical. The following applies: for logD: read-out: LogD7.4.
In data set [9] the test system is Sapajus apella. Nature of the data set: Iron excretion in iron-overloaded Cebus apella feces at 75 umol/kg, po after 48 hrs by flame absorption spectroscopy analysis relative to control. Type of data set: functional.
In data set [10] the test system is Rattus norvegicus. Nature of the data set: Iron clearing effect in noniron-overloaded bile duct cannulated Sprague-Dawley rat assessed as maximum iron clearance time at 300 umol/kg, po. Type of data set: functional.
Data set [11] concerns Sapajus apella. In words: Iron excretion in iron-overloaded Cebus apella feces at 75 umol/kg, sc after 48 hrs by flame absorption spectroscopy analysis relative to control. Type of data set: functional.
Data set [12] has as its system Sapajus apella. Nature of the data set: Iron excretion in iron-overloaded Cebus apella urine at 75 umol/kg, sc after 48 hrs by flame absorption spectroscopy analysis relative to control. The data set is classed as functional.
Data set [13] has as its system Rattus norvegicus. Nature of the data set: Iron excretion in noniron-overloaded bile duct cannulated Sprague-Dawley rat bile at 150 umol/kg, po after 24 hrs relative to control. The data set is classed as functional.
The subject of data set [14] is Rattus norvegicus. In words: Iron clearing effect in noniron-overloaded bile duct cannulated Sprague-Dawley rat at 150 umol/kg, po after 24 hrs. The data set is classed as functional.
Data set [15] relates to Rattus norvegicus. In words: Iron excretion in noniron-overloaded bile duct cannulated Sprague-Dawley rat urine at 150 umol/kg, po after 24 hrs relative to control. The data set is classed as functional.
Data set [16] relates to Rattus norvegicus. In words: Iron clearing effect in noniron-overloaded bile duct cannulated Sprague-Dawley rat assessed as maximum iron clearance time at 150 umol/kg, po. Type of data set: functional.
In data set [17] the test system is Sapajus apella. In words: Iron excretion in iron-overloaded Cebus apella feces at 150 umol/kg, po after 48 hrs by flame absorption spectroscopy analysis relative to control. Type of data set: functional.
Data set [18] relates to Rattus norvegicus. The data set is classed as toxicity, organism-based, Urine. The following applies: in vivo, po, 168 h.
Data set [19] concerns Sapajus apella. In words: Iron clearing effect in iron-overloaded Cebus apella at 150 umol/kg, po after 48 hrs by flame absorption spectroscopy analysis. Type of data set: functional.
For data set [20], the system named is Sapajus apella. In words: Iron excretion in iron-overloaded Cebus apella urine at 150 umol/kg, po after 48 hrs by flame absorption spectroscopy analysis relative to control. Type of data set: functional.
Data set [21] deals with Rattus norvegicus. The data set is classed as toxicity, organism-based, Serum. The following applies: in vivo, po, 168 h.
Data set [22] concerns Rattus norvegicus. Type of data set: toxicity, organism-based, Blood. The following applies: in vivo, po, 168 h.
Data set [23] has as its system Rattus norvegicus. The data set is classed as toxicity, organism-based, Urine. The following applies: in vivo, po, 168 h. This is another data set of the same source.

Turning to `COCCOCCOc1ccc(C2=N[C@@](C)(C(=O)[O-])CS2)c(O)c1.[Na+]`, the Activity in the data set with Sapajus apella [1] was 17%; in the data set with Rattus norvegicus [2], “Non-toxic”; in the data set with Rattus norvegicus [3] it was “Non-toxic”; with Rattus norvegicus [4], 26.7%; in the data set on Rattus norvegicus [5], 3%; in the data set on Sapajus apella [6] it was 28.7%. Besides, the Activity was determined as 97% in the data set with Rattus norvegicus [7] and 83% in the data set with Sapajus apella [9]. Besides, in [8], the LogD7.4 is -0.89. Further, the Time in the data set on Rattus norvegicus [10] was 12 h.
Take `COCCOCCOc1ccnc(C2=N[C@@](C)(C(=O)[O-])CS2)c1O.[Na+]`: the Activity in the data set on Sapajus apella [1] is 60%; with Sapajus apella [11] it was 64%; in the data set with Sapajus apella [12], 36%; in the data set with Rattus norvegicus [3], “Non-toxic”; in the data set on Sapajus apella [9] it was 40%. Further, in data set [8], the logD is -1.38. For the same compound, the Time with Rattus norvegicus [10] turned out to be 6 h.
As for `COCCOCCOc1cnc(C2=N[C@@](C)(C(=O)[O-])CS2)c(O)c1.[Na+]`, the results for the Activity in the data set on Sapajus apella [1], in the data set with Rattus norvegicus [3] and with Sapajus apella [9] were 37%, “Non-toxic” and 63%, respectively. Moreover, the logD in data set [8] is -1.59. The Time with Rattus norvegicus [10] stood at 6 h.
As to `COCCOCCOc1cccc(C2=N[C@@](C)(C(=O)[O-])CS2)c1O.[Na+]`, the Activity in the data set on Sapajus apella [1] stood at 14%; in the data set with Rattus norvegicus [4], 15.1%; in the data set with Rattus norvegicus [5] it was 1%; in the data set with Sapajus apella [6], 22.5%; in the data set with Rattus norvegicus [7], 99%; in the data set with Sapajus apella [9] it was 86%. The logD in data set [8] is -0.96. Moreover, in the data set on Rattus norvegicus [10], the Time worked out at 6 h.
On to `C[C@]1(C(=O)[O-])CSC(c2ncc(O)cc2O)=N1.[Na+]`, for which the Activity in the data set on Sapajus apella [1] is reported as 42%; with Rattus norvegicus [3] it was “Non-toxic”; with Sapajus apella [6] it was 10%; in the data set on Sapajus apella [9], 58%. Besides, the logD in data set [8] is -1.68. Moreover, in the data set on Rattus norvegicus [10], the Time is 6 h.
With `C[C@]1(C(=O)[O-])CSC(c2ccccc2O)=N1.[Na+]`, the Activity in the data set with Rattus norvegicus [13] came out at 100%; in the data set with Sapajus apella [1], 24%; in the data set with Rattus norvegicus [14] it was 2.7%; in the data set on Sapajus apella [6] it was 21.5%; in the data set on Rattus norvegicus [15], 0%; with Sapajus apella [9] it was 76%. Besides, in the data set on Rattus norvegicus [16], the Time was determined as 6 h.
For the compound `C[C@]1(C(=O)[O-])CSC(c2ccc(O)cc2O)=N1.[Na+]` [DEFERITRIN SODIUM], the Activity in the data set with Sapajus apella [17] is reported as 88%; in the data set with Rattus norvegicus [3], “Non-toxic”; in the data set on Rattus norvegicus [18], 69 ng/kg/day; in the data set with Sapajus apella [19], 16.8%; in the data set with Sapajus apella [20] it was 12%. Moreover, the Time with Rattus norvegicus [10] is 3 h.
On to `C[C@]1(C(=O)[O-])CSC(c2ncccc2O)=N1.[Na+]` [DESFERRITHIOCIN SODIUM], for which the Activity with Rattus norvegicus [13] was 93%; with Sapajus apella [17], 78%; in the data set on Rattus norvegicus [14], 5.5%; in the data set on Rattus norvegicus [21], 5.1 mg/dL; in the data set with Rattus norvegicus [22], 139 mg/dL; with Rattus norvegicus [3], “Toxic”. For the same compound, the Activity worked out at 1528 ng/kg/day in the data set on Rattus norvegicus [18]; 16.1% in the data set with Sapajus apella [19]; 22% in the data set on Sapajus apella [20]; 192 ng/kg/day with Rattus norvegicus [23]; 7% with Rattus norvegicus [15]. In the data set on Rattus norvegicus [16], the Time came out at 3 h.
